Experiment [1] concerns small-intestinal enzyme liquid. Description: Decomposition of a saccharide alone (control solution) by small-intestinal enzyme liquid. The note with it: 5% saccharide alone. In kind it is biochemical, rat. The procedure: (§1) Palatinose (trade name: Palatinose IC, ex Shin Mitsui Sugar Co., Ltd.) (test sample) was used as a sample for investigating each enzyme activity inhibitory effect. Maltose and sucrose were used as substrates for maltase and sucrose, respectively. The test sample and the substrates were dissolved in 0.1 M phosphate buffer (pH 6.8) at the concentration shown in Table 1 below to prepare test solutions (Solutions 4 and 5). Also, the test sample or the substrates were dissolved in 0.1 M phosphate buffer (pH 6.8), respectively to at the concentration shown in Table 1 below to prepare control solutions (Solution 1 for the test sample and Solutions 2 and 3 for the substrates).
(§2) Two grams of rat small-intestinal acetone powder (ex Sigma Corporation) were dissolved in 20 ml of 0.1 M phosphate buffer (pH 6.8), left standing one day at 5° C., and subsequently subjected to centrifugal separation (8000 rpm×15 min.). The supernatant was filtered through a 0.8 μm membrane filter to obtain a small-intestinal enzyme liquid. This liquid contained a mixture of enzymes present in small intestine, such as sucrose, glucoamylase, maltase, and isomaltase.
(§3) Each 0.25 ml of the small-intestinal enzyme liquid was added to each 5 ml of Solutions 1 through 5 and placed in a water bath at 37° C. to allow them to react for 60 min. while shaken at 60 strokes/min. After the reaction, they were heated in a boiling water bath for 3 min. for inactivation of the enzymes.
(§4) The glucose concentration in each solution after the reaction was measured using the F-kit Glucose (ex Roche). A liberated glucose concentration (g/l) was calculated by subtracting the blank value (0.1 M phosphate buffer alone) and the concentration of glucose originally contained in the test sample from each glucose concentration measured.
The fructose concentration was measured using the F-kit Fructose (ex Roche). The liberated fructose concentration, g/l, was obtained by subtracting the blank value (0.1 M phosphate buffer alone) from the resultant fructose concentration.
The procedures in Example 1 were repeated with the exception that palatinit, palatinose or isomaltose was used as a test sample and lactose was used as a substrate. The test samples and the substrate were dissolved in 0.1 M phosphate buffer (pH 6.8) to attain the concentration shown in Table 5 to thereby prepare three test solutions. Besides, each of the test samples or the substrate was dissolved in 0.1 M phosphate buffer (pH 6.8) to attain the concentration shown in Table 5 to thereby prepare control solutions. Each 5 ml of the aforementioned test solutions and the control solutions was subjected to the enzymatic reaction according to the same procedures as in Example 1. The glucose concentration, the fructose concentration and the galactose concentration were measured. The galactose concentration was measured using F-kit Galactose (ex Roche). The liberated galactose concentration, g/l, was calculated by subtracting the blank value (0.1 M phosphate buffer alone) from the measured galactose concentration.

In experiment [2] the test system is glucoamylase. Description: Glucoamylase activity inhibition with rat small-intestinal enzyme liquid, substrate soluble starch. The experiment is classed as biochemical. The conditions noted are these: 5% soluble starch + 5% test sample. The method, then:
as §2, §3, §4
Next, each of the liberated glucose concentration was input in the following equation to obtain decomposition inhibition ratio for maltase and sucrose. In the present tests, the substrates and the inhibitors were decomposed by enzymes present in the small-intestinal enzyme liquid. However, the enzymes decomposing the substrates are different from the enzymes decomposing the inhibitors. The decomposition inhibition ratio was determined as a measure for the inhibitory effect. When the inhibitor was added, the glucose concentration was lower than that seen when the substrate alone was reacted. A higher decomposition inhibition ratio means a stronger inhibitory effect.
Decomposition inhibition ratio,%={(A+B)−(AB)}+(A+B)×100 [Equation 1]
wherein (A+B) indicates a sum of a liberated glucose concentration in the control solution containing the test sample alone after the reaction (A) and a liberated glucose concentration in the control solution containing the substrate alone after the reaction (B); and (AB) indicates a liberated glucose concentration in the test solution containing the test sample (A) and the substrate (B), after the reaction.
The procedures in Example 1 were repeated with the exception that palatinose and palatinit were used as a test sample and soluble starch was used as a substrate. The test samples and the substrate were dissolved in 0.1 M phosphate buffer (pH 6.8) to attain the concentration shown in Table 6 to thereby prepare two test solutions. Besides, each of the test samples or the substrate was dissolved in 0.1 M phosphate buffer (pH 6.8) to attain the concentration shown in Table 6 to thereby prepare control solutions. Each 5 ml of the aforementioned test solutions and the control solutions was subjected to the enzymatic reaction according to the same procedures as in Example 1 and the liberated glucose concentration and the decomposition inhibition ratio were measured.
The procedures in Example 1 were repeated with the exception that trehalulose was used as a test sample and soluble starch was used as a substrate. The test sample and the substrate were dissolved in 0.1 M phosphate buffer (pH 6.8) to attain the concentration shown in Table 9 to thereby prepare a test solution. Besides, the test sample or the substrate was dissolved in 0.1 M phosphate buffer (pH 6.8) to attain the concentration shown in Table 9 to thereby prepare control solutions. Each 5 ml of the aforementioned test solution and the control solutions was subjected to the enzymatic reaction according to the same procedures as in Example 1 and the liberated glucose concentration and the decomposition inhibition ratio were measured.
The procedures in Example 1 were repeated with the exception that trehalose was used as a test sample and soluble starch was used as a substrate. […]

Experiment [3] concerns maltase. Description: Maltase activity inhibition with rat small-intestinal enzyme liquid, substrate maltose. In kind it is biochemical. The conditions noted are these: 5% maltose + 5% test sample. The procedure: as §1
Two grams of rat small-intestinal acetone powder (ex Sigma Corporation) were dissolved in 20 ml of 0.1 M phosphate buffer (pH 6.8), left standing one day at 5° C., and subsequently subjected to centrifugal separation (8000 rpm×15 min.). The supernatant was filtered through a 0.8 μm membrane filter to obtain a small-intestinal enzyme liquid. This liquid contained a mixture of enzymes present in small intestine, such as sucrose, glucoamylase, maltase, and isomaltase. […]
as §4
Next, each of the liberated glucose concentration was input in the following equation to obtain decomposition inhibition ratio for maltase and sucrose. […] The decomposition inhibition ratio was determined as a measure for the inhibitory effect. […]
Each 5 ml of the aforementioned test solutions and control solutions was subjected to the enzymatic reaction in the same procedures as in Example 1. The liberated glucose concentration, the decomposition inhibition ratio for maltase and the decomposition inhibition ratio for sucrose were calculated for each solution after the reaction.

Molecules are shown by their SMILES.

With `OC[C@H]1O[C@H](OC[C@H]2OC(O)(CO)[C@@H](O)[C@@H]2O)[C@H](O)[C@@H](O)[C@@H]1O` (some centres unmarked) [palatinose, isomaltulose], the Liberated glucose concentration was 0.095 ± 0.010 g/L in experiment [1] (37° C., 60 min, pH 6.8, Example 1 / Test Example 1); 0.11 g/L in experiment [1] (Example 3 / Test Examples 2, 3); 0.205 g/L in experiment [1] (Example 4); 3.611 g/L in experiment [2] (Example 4); 4.757 ± 0.342 g/L in experiment [3] (37° C., 60 min). In experiment [1] (Example 3 / Test Examples 2, 3), the Liberated fructose concentration came out at 0.21 g/L. Besides, in experiment [1] (Test Example 3), the Liberated galactose concentration was determined as 0.00 g/L. Moreover, the “Glucoamylase activity inhibitory effect (in words)” value in experiment [2] is given as “have the glucoamylase activity inhibitory effect”. For the same compound, the “Decomposition inhibition ratio, %, against glucoamylase” value in experiment [2] (Example 4) came to 26%. Also, the “Maltase activity inhibitory effect (in words)” value in experiment [3] is given as “has a maltase activity inhibitory effect”. Further, the “Decomposition inhibition ratio, %, against maltase” value in experiment [3] (Equation 1) came out at 6%.

Source of the values: patent US20080206311A1, “Sucrase Activity Inhibitor, Glucoamylase Activity Inhibitor and Food and Feed Containing the Same” (MITSUI SUGAR CO., LTD., priority 2005, published 2008).
